Values of other authors as cited in patent publication US20100322881A1, “UVB FILTER BASED ON ASCORBIC ACID DERIVATIVES” (MERCK PATENT GESELLSCHAFT, priority 2008, published 2010).

System: prolyl-4-hydroxylase
Settings: literature statement; for supporting the activity of the enzyme prolyl-4-hydroxylase: Biochem. J. 1994, 300, 75-79

CC(=O)Oc1ccccc1C(=O)OC[C@H](OC(=O)c1ccccc1OC(C)=O)[C@H]1OC(=O)C(O)=C1O [O^5O^6-bis(2-acetoxybenzoyl) L-ascorbate]
affinity to the enzyme (compared with the monosubstituted compound): lower affinity
supporting the activity of the enzyme prolyl-4-hydroxylase: capable of supporting the activity

CC(=O)Oc1ccccc1C(=O)OC[C@H](O)[C@H]1OC(=O)C(O)=C1O [O^6-(2-acetoxybenzoyl) L-ascorbate]
supporting the activity of the enzyme prolyl-4-hydroxylase: capable of supporting the activity
